Data on 3 molecules can be found in US11603382B2, “Diastereoselective synthesis of phosphate derivatives” (NuCana plc, priority 2015, dated 2023).

A short description of data set [1]: solubility in mixtures of polar organic solvents with water. The data set is classed as physicochemical. An excerpt: It has recently been discovered that the (S)-epimer of gemcitabine-[phenyl-benzoxy-L-alaninyl)]-phosphate has sufficient solubility in mixtures of a number of polar organic solvents with water to render it suitable for formulation and administration as a therapeutic agent. […] In certain solvent mixtures the difference in solubility between the (S)-epimer and the (R)-epimer is over 100 fold. It is expected therefore that more clinically effective, practical and patient friendly administration methods can be developed using the (S)-epimer than can be developed using the (R)-epimer or using the mixture. It is thus desirable to be able to provide gemcitabine-[phenyl-benzoxy-L-alaninyl)]-(S)-phosphate in substantially diastereoisomerically pure form.

Data set [2] deals with isolated human hepatic cells. As to the kind of experiment: half-life on incubation with isolated human hepatic cells. The data set is classed as in vitro ADME. The source says:
The longer half-life associated with (R)-isomer indicates a lower intrinsic clearance and should result in a different pharmacokinetic and pharmacodynamic profile to the (S)-isomer which may offer some benefits.

A further data set is described as follows: solubility in water. The note with it: regardless of salt content or pH. The data set is classed as physicochemical. The protocol:
NUC-1031 is extremely lipophillic and thus poorly water soluble (by calculation: <0.1 mg/mL), and the ionisable moieties have calculated pKas which lie out-side the pH range suitable for parenteral administration. […] It also has implications for the development of efficient manufacturing processes which will allow NUC-1031 to be produced cost effectively.

With `C[C@H](N[P@@](=O)(OC[C@H]1O[C@@H](n2ccc(N)nc2=O)C(F)(F)C1O)Oc1ccccc1)C(=O)OCc1ccccc1` (stereo partly drawn) [(R)-epimer], the “solubility relative to the (S)-epimer” value in data set [1] (mixtures of polar organic solvents with water) is listed as “considerably lower”. In addition, in data set [2], the “half-life relative to that of the (S)-epimer” value is “four times”.
`C[C@H](N[P@](=O)(OC[C@H]1O[C@@H](n2ccc(N)nc2=O)C(F)(F)C1O)Oc1ccccc1)C(=O)OCc1ccccc1` (stereo partly drawn) [(S)-epimer]: the “difference in solubility between the (S)-epimer and the (R)-epimer” value in data set [1] (in certain solvent mixtures (polar organic solvents with water), (S)-epimer over (R)-epimer) was “over 100 fold”.
In the case of `C[C@H](NP(=O)(OC[C@H]1O[C@@H](n2ccc(N)nc2=O)C(F)(F)C1O)Oc1ccccc1)C(=O)OCc1ccccc1` (stereo partly drawn) [NUC-1031, 2′-deoxy-2′,2′-difluoro-D-cytidine-5′-O-[phenyl(benzoxy-L-alaninyl)] phosphate], in “solubility in water”, the solubility in water result is reported as “essentially insoluble in water”.
